Measurements as given in ChEMBL document CHEMBL1201862, “PubChem BioAssay data set” (2004).
Activity calls are given as the source filed them.

Legend:
[1] = DRD fibroblast viability loss – cell-based, non-viral oncogenic, luminescence, dose response (AID 1934); type: functional; settings: Homo sapiens
[2] = OVCAR-3 cell viability loss – plate reader, dry powder samples, PAX8 inhibitor project, dose response (AID 743044); type: functional, cell-based
[3] = inhibitors acting on PAX2 in cells – cell-based, plate reader, dry powder samples, selectivity assay for PAX8 inhibitor project, dose response (AID 743048); type: functional;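 further: HEK293 cells carrying a WT1 promoter luciferase reporter driven by expressed Pax2; potency is for inhibition of Pax2 driven reporter signal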
[4] = toxicity toward immortalized ovarian surface epithelium – cell-based, plate reader, dry powder samples, cytotoxicity control for PAX8 inhibitor project, dose response (AID 743045); type: functional
[5] = PAX5 cellular inhibition readout – cell-based, plate reader, dry powder samples, selectivity assay for PAX8 inhibitor project, dose response (AID 743047); type: functional;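 further: HEK293 cells carrying a Pax5 driven CD19 promoter luciferase reporter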
BJ [6] = experiment: growth inhibition of engineered Ras-driven BJ cells – cell-based, alamar blue fluorescence, cherrypicked samples, dose response (AID 2631); type: functional; settings: Homo sapiens;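 further: confirmatory dose-response assay in RAS-dependent BJ fibroblasts engineered with TERT, LT and ST, with cytotoxicity read by fluorescence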
[7] = OV-90 cell viability loss – plate reader, dry powder, SA8, PAX8 inhibitor project, dose response (AID 743149); type: functional, cell-based
[8] = luciferase reporter signal reduction – luminescence, H4-C neuroglioblastoma cells, dose response (AID 2458); type: functional, cell-based;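 further: H4 neuroglioblastoma cells stably carrying a luciferase reporter gene fusion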
[9] = alpha-synuclein stem-loop translation blockers – luminescence, H4 neuroglioblastoma cells, dose confirmation, confirmation (AID 2454); type: functional, cell-based;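 further: H4 neuroglioblastoma cells carrying an alpha-synuclein 5'UTR luciferase reporter; potency for inhibition of the luciferase signal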
Paired box protein Pax-8 = Paired box protein Pax-8 (Homo sapiens, UniProt Q06710); experiment: PAX8 transcriptional activity inhibition in RMG-I – RMG-I cells, luciferase, cherry-pick, dose response (AID 687027); type: functional, cell-based;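 further: luciferase reporter driven by Pax8 target thyroperoxidase promoter measured by SteadyGlo luminescence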
[10] = luciferase reporter signal suppression in cells – H4 neuroglioma cells, luminescence, dose response (AID 1990); type: functional, cell-based
[11] = OVCAR4 cell viability loss – plate reader, dry powder, SA11, cytotoxicity control for PAX8 inhibitor project, dose response (AID 743150); type: functional, cell-based; settings: OVCAR-4
[12] = COV434 cell viability loss – plate reader, dry powder, SA7, cytotoxicity control for PAX8 inhibitor project, dose response (AID 743145); type: functional, cell-based
BJ [13] = experiment: BJ-TERT fibroblast viability loss – cell-based, RAS-independent, luminescence, dose response (AID 1933); type: functional; settings: Homo sapiens
[14] = A2780 cell killing – plate reader, dry powder samples, cytotoxicity control, dose response (AID 743046); type: functional, cell-based
[15] = COV362 cell viability loss – plate reader, dry powder, SA12, cytotoxicity control for PAX8 inhibitor project, dose response (AID 743144); type: functional, cell-based
[16] = alpha-synuclein stem-loop luciferase translation blockers – H4 neuroglioma cells, luminescence, confirmation (AID 1988); type: functional, cell-based
[17] = Luminescence Cell-Based Dose Response HTS to Identify Inhibitors of 5'UTR Stem-Loop Driven Prion Protein mRNA Translation in H4 Neuroglioblastoma Cells. [Related pubchem assays: 1827 (Project Summary), 1813 (Primary HTS)]; type: functional
[18] = IGROV1 cell killing – plate reader, dry powder samples, PAX8 inhibitor project, dose response (AID 743043); type: functional, cell-based; settings: IGROV-1
cells [19] = type: functional, cell-based
BJ [20] = experiment: cells; type: functional, cell-based; settings: Homo sapiens
[21] = PAX8-dependent cell viability loss – plate reader, dry powder, dose response (AID 743049); type: functional, cell-based
Transthyretin = Transthyretin (Homo sapiens, UniProt P02766); experiment: Luminescence-based cell-based high throughput dose response assay to identify activators of Transthyretin (TTR) transcription.; type: functional
[22] = viability loss in human Jurkat cells – cell-based, luminescence, cytotoxicity control for P. falciparum gametocyte viability project, dose response (AID 1117277); type: functional;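 further: potency reflects loss of cellular ATP meaning fewer viable cells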
[23] = viability inhibitors of stage V gametocytes – luminescence, dose response (AID 1117278); type: functional, cell-based;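 further: gametocytes exposed to compound for 24 hours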
[24] = target: Glutathione-S-transferase (Schistosoma japonicum, UniProt Q26513); experiment: GST-antibody interaction or FRET quenching – biochemical, TR-FRET, artefact control for Vif-APOBEC3G degradation inhibitor project, dose response (AID 1117362); type: functional
Vero = experiment: viability of Vero cells under compound – cytotoxicity control for flavivirus capping enzyme inhibitors (AID 588742); type: functional; settings: Chlorocebus sabaeus
[25] = Trypanosoma cruzi growth suppression in host cells – NIH3T3 host cells, beta-gal luminescence, confirmation (AID 2044); type: functional, cell-based;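 further: intracellular parasites grown in NIH/3T3 mouse fibroblasts as host cells; luminescent beta-galactosidase reporter signal from transgenic T. cruzi replicating inside host cells; inhibitors lower the luminescence signal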
[26] = IC50 of Artemis nuclease activity blockers – biochemical, fluorescence intensity, dose response (AID 720701); type: functional;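 further: Artemis endonuclease enzyme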
[27] = NIH3T3 cell viability loss – ATP luminescence, mouse fibroblasts, counter-screen, dose response (AID 2010); type: functional, cell-based;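 further: cells exposed to compound for about 90 hours before reading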
[28] = target: T1, Trace amine-associated receptor 1 (Homo sapiens, UniProt Q96RJ0); experiment: Counterscreen for agonists of the human trace amine associated receptor 1 (hTAAR1): Fluorescence-based cell-based high throughput dose response assay to identify hTAAR1 agonist that also desensitize TAAR1 receptor response.; type: functional
T1 sequence (Q96RJ0 whole entry): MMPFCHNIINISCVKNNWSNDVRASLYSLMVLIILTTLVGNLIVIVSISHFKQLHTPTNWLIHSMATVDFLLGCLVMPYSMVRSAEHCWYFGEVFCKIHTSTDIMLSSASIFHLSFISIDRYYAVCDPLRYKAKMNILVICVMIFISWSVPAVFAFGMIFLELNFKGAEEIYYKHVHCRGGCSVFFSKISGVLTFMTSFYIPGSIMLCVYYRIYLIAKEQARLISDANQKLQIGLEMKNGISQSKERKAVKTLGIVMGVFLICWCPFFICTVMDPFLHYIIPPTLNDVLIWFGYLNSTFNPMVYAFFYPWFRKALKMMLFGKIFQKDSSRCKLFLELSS

cells [29] = type: functional, cell-based; remark: listed apart in the source
cells [30] = type: functional, cell-based; remark: listed apart in the source
[31] = target: E3 ubiquitin-protein ligase Mdm2 (Homo sapiens, UniProt Q00987); experiment: MDM2-luc reporter signal enhancers, multi-concentration potency testing, MDM2 ubiquitin-protein ligase inhibitor program, whole-cell format, luminescence detection, 384-well microplate (AID 1394); type: functional;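 further: MDM2 E3 inhibitors raise luminescence so EC50 is for signal enhancement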
[32] = target: T1, Trace amine-associated receptor 1; experiment: Fluorescence-based cell-based high throughput dose response assay to identify agonists of the human trace amine associated receptor 1 (TAAR1).; type: functional
[33] = target: T2, Mannose-6-phosphate isomerase (Homo sapiens, UniProt P34949); experiment: MPI inhibition at elevated mannose 6-phosphate – biochemical, fluorescence intensity, high mannose 6-phosphate, primary screen (AID 1220)
T2 sequence (P34949 whole entry): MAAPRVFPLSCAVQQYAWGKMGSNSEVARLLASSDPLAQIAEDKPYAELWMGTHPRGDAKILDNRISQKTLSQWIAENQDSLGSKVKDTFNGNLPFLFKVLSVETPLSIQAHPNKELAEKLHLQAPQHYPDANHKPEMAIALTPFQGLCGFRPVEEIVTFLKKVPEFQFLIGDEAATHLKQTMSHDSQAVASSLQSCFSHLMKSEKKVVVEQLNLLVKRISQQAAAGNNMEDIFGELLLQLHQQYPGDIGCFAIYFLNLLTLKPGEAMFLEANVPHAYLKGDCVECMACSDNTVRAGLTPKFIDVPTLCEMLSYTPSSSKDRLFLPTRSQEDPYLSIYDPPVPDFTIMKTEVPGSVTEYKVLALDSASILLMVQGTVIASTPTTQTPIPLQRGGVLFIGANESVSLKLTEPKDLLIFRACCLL

Chain of Glutathione-S-transferase (Q26513 whole entry): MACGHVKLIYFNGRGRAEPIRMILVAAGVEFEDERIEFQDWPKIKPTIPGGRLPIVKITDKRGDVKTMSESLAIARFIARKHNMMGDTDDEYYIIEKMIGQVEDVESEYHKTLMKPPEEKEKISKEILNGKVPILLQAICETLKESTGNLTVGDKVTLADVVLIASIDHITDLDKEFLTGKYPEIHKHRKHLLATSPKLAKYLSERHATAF
Chain of Paired box protein Pax-8 (Q06710 whole entry): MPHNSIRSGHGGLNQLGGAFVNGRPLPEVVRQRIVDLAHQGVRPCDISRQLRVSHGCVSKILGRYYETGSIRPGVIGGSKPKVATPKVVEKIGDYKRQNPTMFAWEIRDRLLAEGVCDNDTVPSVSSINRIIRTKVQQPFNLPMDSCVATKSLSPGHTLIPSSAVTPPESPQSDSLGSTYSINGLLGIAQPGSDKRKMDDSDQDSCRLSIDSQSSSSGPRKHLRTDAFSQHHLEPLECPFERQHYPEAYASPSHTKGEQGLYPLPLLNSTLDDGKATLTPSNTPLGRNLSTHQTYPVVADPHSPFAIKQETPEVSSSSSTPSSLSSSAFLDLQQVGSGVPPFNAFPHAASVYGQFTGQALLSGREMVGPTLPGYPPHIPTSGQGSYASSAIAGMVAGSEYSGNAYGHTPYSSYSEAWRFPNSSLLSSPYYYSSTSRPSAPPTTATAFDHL
Chain of E3 ubiquitin-protein ligase Mdm2 (Q00987 whole entry): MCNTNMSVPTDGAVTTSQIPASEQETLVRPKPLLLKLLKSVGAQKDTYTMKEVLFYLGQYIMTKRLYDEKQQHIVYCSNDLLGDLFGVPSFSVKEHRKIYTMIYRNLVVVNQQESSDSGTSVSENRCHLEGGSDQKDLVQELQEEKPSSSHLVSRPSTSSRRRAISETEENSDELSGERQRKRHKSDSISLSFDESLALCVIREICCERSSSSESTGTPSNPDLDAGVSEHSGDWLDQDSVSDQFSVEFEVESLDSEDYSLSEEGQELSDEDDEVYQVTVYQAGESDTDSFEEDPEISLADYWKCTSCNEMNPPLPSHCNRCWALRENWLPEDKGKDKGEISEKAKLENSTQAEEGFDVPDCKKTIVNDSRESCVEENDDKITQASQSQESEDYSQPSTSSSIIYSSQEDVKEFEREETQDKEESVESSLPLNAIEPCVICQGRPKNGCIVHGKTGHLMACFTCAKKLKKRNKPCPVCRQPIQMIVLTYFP

Cc1cccc(C)c1NS(=O)(=O)c1ccc(-c2cnc(C3CC3)o2)cc1
EC50 [1]: 60.4 µM (inconclusive) | AC50 [2]: 12.1 µM (active) | AC50 [3]: 22.4 µM (active) | AC50 [4]: 651 nM (active) | AC50 [5]: 4.58 µM (active) | EC50 (BJ [6]): < 104 nM (active) | AC50 [7]: 973 nM (active) | EC50 [8]: 113 nM (active) | EC50 [9]: 208 nM (active) | AC50 (Paired box protein Pax-8): 1.74 µM (active) | EC50 [10]: < 100 nM (active) | AC50 [11]: 366 nM (active) | AC50 [12]: 329 nM (active) | EC50 (BJ [13]): 158 nM (active) | AC50 [14]: 2.06 µM (active) | AC50 [15]: 401 nM (active) | EC50 [16]: < 100 nM (active) | EC50 [17]: > 120 µM (not active) | AC50 [18]: 5.04 µM (active) | EC50 (cells [19]): 229 nM (active) | EC50 (BJ [20]): 751 nM (inconclusive) | AC50 [21]: 5.36 µM (active)

Cn1cc(C2CC(c3ccccc3)=NN2C(=O)c2ccccc2)c2ccccc21 (stereo unspecified)
EC50 (Transthyretin): > 167 µM (inactive)

OCC1(Cc2ccccc2)CCN(Cc2cnc(-c3ccc(Cl)cc3)nc2)CC1
IC50 [22]: > 83.3 µM (inactive) | IC50 [23]: > 109 µM (inactive)

Cc1nn(-c2ccccn2)c2c1C(=O)C(Br)CC2 (stereo unspecified)
IC50 [24]: 65.6 µM (active) | CC50 (Vero): > 40 µM (active)

CCOC(=O)c1c(NC(=O)CSc2n[nH]c3c4ccccc4nc-3n2)sc2c1CCN(C)C2
EC50 [25]: 161 nM (active) | IC50 [26]: 10 µM (active) | EC50 [27]: > 60 µM (not active)

O=[N+]([O-])c1ccc2c(c1NCCc1ccccc1)=NC1(CCCCC1)[N+]=2[O-]
IC50 [28]: 8.86 µM (active) | IC50 (cells [29]): > 29.9 µM (inactive) | EC50 (cells [30]): > 29.9 µM (inactive) | EC50 [31]: 393 µM (not active) | EC50 [32]: 3.09 µM (active) | IC50 [33]: > 50 µM (not active)
